Source: ChEMBL document CHEMBL1909046, “DrugMatrix in vitro pharmacology data”

Legend:
[1] = DRUGMATRIX: Glutamate, Kainate radioligand binding (ligand: [3H] Kainic acid); assay type: cell membranes, Rattus norvegicus, Wistar, Brain, Membrane; details: Not Active = under 50% inhibition at 10 µM
Cytochrome P450 2C9 = Cytochrome P450 2C9 (Homo sapiens, UniProt P11712); details: bti-tn-5b1-4; also: in other assays of this panel Not Active means under 50% inhibition at 10 µM
Carbonic anhydrase 2 = Carbonic anhydrase 2 (Homo sapiens, UniProt P00918); assay: DRUGMATRIX: Carbonic Anhydrase II enzyme inhibition (substrate: 4-Nitrophenyl acetate (4-NPA)); assay type: tissue-based, Erythrocyte; details: erythrocyte; Not Active = under 50% inhibition at 10 µM
[2] = target: T1, 3-hydroxy-3-methylglutaryl-coenzyme A reductase (Homo sapiens, UniProt P04035); set-up: species or system Escherichia coli;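 also: enzyme inhibition assay of HMG-CoA reductase using radiolabeled [14C]HMG-CoA as substrate; in other assays of this panel Not Active means under 50% inhibition at 10 µM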
T1 sequence (P04035 whole entry): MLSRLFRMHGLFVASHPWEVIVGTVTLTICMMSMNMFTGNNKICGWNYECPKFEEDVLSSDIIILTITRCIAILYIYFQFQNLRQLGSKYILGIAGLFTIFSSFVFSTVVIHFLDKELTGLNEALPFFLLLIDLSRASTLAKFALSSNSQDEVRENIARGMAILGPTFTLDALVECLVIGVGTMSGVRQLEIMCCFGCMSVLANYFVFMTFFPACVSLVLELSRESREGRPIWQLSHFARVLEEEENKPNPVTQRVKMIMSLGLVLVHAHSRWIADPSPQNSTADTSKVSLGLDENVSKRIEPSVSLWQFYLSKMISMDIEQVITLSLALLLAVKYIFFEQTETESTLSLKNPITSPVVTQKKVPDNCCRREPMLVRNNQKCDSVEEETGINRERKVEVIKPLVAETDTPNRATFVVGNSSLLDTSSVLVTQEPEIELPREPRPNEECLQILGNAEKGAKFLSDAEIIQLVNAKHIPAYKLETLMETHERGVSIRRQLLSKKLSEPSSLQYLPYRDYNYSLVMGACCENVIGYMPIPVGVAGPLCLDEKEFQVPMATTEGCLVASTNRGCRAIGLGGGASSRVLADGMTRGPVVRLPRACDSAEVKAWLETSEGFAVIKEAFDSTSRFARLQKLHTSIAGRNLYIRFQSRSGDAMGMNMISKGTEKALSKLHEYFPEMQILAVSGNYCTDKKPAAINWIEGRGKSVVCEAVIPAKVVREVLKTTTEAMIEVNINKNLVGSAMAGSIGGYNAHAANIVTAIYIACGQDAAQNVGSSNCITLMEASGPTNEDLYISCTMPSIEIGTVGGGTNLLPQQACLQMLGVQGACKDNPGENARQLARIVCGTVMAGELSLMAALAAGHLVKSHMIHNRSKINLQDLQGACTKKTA

Cannabinoid receptor 1 = Cannabinoid receptor 1 (Homo sapiens, UniProt P21554); assay type: cell membranes, Chem-1, Membrane; details: chem-1; also: in other assays of this panel Not Active means under 50% inhibition at 10 µM
Cathepsin G = target: T2, Cathepsin G (Homo sapiens, UniProt P08311); assay: biochemical; assay type: tissue-based, Neutrophil; details: neutrophil;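 also: inhibition of Cathepsin G enzyme activity, tested on an AMC-conjugated peptide substrate; in other assays of this panel Not Active means under 50% inhibition at 10 µM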
T2 sequence (P08311 whole entry): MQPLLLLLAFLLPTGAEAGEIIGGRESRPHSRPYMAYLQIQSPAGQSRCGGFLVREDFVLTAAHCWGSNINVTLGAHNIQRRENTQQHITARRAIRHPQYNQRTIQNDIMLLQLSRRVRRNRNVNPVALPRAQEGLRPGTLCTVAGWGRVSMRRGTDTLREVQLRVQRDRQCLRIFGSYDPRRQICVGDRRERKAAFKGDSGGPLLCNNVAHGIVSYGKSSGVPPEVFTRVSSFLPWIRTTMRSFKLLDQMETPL

Cytochrome P450 1A2 = target: T3, Cytochrome P450 1A2 (Homo sapiens, UniProt P05177); details: bti-tn-5b1-4; also: in other assays of this panel Not Active means under 50% inhibition at 10 µM
T3 sequence (P05177 whole entry): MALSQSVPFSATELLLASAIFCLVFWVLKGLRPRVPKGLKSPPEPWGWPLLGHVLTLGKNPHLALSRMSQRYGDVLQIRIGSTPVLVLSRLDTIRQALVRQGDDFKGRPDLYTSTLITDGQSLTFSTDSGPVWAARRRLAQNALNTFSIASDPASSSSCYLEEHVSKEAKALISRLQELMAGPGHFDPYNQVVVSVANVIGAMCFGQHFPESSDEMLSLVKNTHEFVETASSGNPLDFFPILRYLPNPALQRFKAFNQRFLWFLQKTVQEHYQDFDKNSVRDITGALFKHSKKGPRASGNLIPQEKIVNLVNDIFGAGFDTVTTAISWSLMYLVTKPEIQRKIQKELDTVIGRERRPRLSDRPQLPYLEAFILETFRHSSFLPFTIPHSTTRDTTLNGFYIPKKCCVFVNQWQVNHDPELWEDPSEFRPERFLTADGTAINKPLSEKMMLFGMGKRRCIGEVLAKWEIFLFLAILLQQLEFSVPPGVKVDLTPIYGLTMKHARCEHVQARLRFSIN

[3] = DRUGMATRIX: Calcium Channel Type L, Dihydropyridine radioligand binding (ligand: [3H] Nitrendipine); assay type: cell membranes, Rattus norvegicus, Wistar, Cerebral cortex, Membrane; details: Not Active = under 50% inhibition at 10 µM

Sequence of Cannabinoid receptor 1 (P21554 whole entry): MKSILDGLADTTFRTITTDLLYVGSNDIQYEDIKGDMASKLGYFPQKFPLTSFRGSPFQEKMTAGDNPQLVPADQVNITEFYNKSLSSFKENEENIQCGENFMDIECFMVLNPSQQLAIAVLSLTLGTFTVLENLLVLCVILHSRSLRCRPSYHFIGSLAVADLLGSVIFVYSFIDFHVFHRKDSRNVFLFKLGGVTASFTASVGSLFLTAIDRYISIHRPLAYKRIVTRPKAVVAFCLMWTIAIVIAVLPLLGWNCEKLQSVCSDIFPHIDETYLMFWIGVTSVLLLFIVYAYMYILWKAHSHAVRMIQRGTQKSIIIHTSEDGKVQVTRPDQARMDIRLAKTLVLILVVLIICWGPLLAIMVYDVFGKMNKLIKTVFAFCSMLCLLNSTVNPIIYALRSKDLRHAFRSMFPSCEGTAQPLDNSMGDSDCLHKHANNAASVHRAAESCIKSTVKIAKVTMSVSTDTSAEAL
Sequence of Cytochrome P450 2C9 (P11712 whole entry): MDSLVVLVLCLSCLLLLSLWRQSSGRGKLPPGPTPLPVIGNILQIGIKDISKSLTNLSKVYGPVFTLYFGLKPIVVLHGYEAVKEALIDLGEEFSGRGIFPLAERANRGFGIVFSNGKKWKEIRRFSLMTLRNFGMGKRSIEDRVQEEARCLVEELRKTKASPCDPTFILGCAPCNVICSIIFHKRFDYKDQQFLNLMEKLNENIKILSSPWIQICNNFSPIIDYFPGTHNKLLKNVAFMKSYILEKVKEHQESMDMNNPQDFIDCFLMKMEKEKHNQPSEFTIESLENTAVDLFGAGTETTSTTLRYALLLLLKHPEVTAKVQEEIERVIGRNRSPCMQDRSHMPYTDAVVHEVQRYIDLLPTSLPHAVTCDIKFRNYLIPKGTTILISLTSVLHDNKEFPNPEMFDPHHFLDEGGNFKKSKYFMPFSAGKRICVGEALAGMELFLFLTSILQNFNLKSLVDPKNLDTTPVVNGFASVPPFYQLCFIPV

OC[C@H]1O[C@@H]2O[C@H]3[C@H](O)[C@@H](O)[C@@H](O[C@H]4[C@H](O)[C@@H](O)[C@@H](O[C@H]5[C@H](O)[C@@H](O)[C@@H](O[C@H]6[C@H](O)[C@@H](O)[C@@H](O[C@H]7[C@H](O)[C@@H](O)[C@@H](O[C@H]1[C@H](O)[C@H]2O)O[C@@H]7CO)O[C@@H]6CO)O[C@@H]5CO)O[C@@H]4CO)O[C@@H]3CO [ALFADEX]
Not Active: IC50 [1] | Ki [1] | IC50 (Cytochrome P450 2C9) | Ki (Cytochrome P450 2C9) | IC50 (Carbonic anhydrase 2) | IC50 [2] | IC50 (Cannabinoid receptor 1) | IC50 (Cathepsin G) | IC50 (Cytochrome P450 1A2) | Ki (Cytochrome P450 1A2) | IC50 [3] | Ki [3]

O=C(Nc1ccc(Cl)c(Cl)c1)c1cc(Cl)cc(Cl)c1O [3,3',4',5-TETRACHLOROSALICYLANILIDE]
Not Active: IC50 [1] | Ki [1] | IC50 (Cytochrome P450 2C9) | Ki (Cytochrome P450 2C9) | IC50 (Carbonic anhydrase 2) | IC50 [2] | IC50 (Cannabinoid receptor 1) | IC50 (Cathepsin G) | IC50 (Cytochrome P450 1A2) | Ki (Cytochrome P450 1A2) | IC50 [3] | Ki [3]

COC(=O)Nc1nc2ccc(Sc3ccccc3)cc2[nH]1 [FENBENDAZOLE]
Not Active: IC50 [1] | Ki [1] | IC50 (Cytochrome P450 2C9) | Ki (Cytochrome P450 2C9) | IC50 (Carbonic anhydrase 2) | IC50 [2] | IC50 (Cannabinoid receptor 1) | IC50 (Cathepsin G) | IC50 (Cytochrome P450 1A2) | Ki (Cytochrome P450 1A2) | IC50 [3] | Ki [3]

Nc1ccc(C(=O)O)c(O)c1 [AMINOSALICYLIC ACID]
Not Active: IC50 [1] | Ki [1] | IC50 (Cytochrome P450 2C9) | Ki (Cytochrome P450 2C9) | IC50 (Carbonic anhydrase 2) | IC50 [2] | IC50 (Cannabinoid receptor 1) | IC50 (Cathepsin G) | IC50 (Cytochrome P450 1A2) | Ki (Cytochrome P450 1A2) | IC50 [3] | Ki [3]

COC(=O)C[C@](O)(CCC(C)(C)O)C(=O)O[C@@H]1C(OC)=C[C@]23CCCN2CCc2cc4c(cc2[C@H]13)OCO4 [HARRINGTONINE]
Not Active: IC50 [1] | Ki [1] | IC50 (Cytochrome P450 2C9) | Ki (Cytochrome P450 2C9) | IC50 (Carbonic anhydrase 2) | IC50 [2] | IC50 (Cannabinoid receptor 1) | IC50 (Cathepsin G) | IC50 (Cytochrome P450 1A2) | Ki (Cytochrome P450 1A2) | IC50 [3] | Ki [3]

OC[C@H]1O[C@@H]2O[C@H]3[C@H](O)[C@@H](O)[C@@H](O[C@H]4[C@H](O)[C@@H](O)[C@@H](O[C@H]5[C@H](O)[C@@H](O)[C@@H](O[C@H]6[C@H](O)[C@@H](O)[C@@H](O[C@H]7[C@H](O)[C@@H](O)[C@@H](O[C@H]8[C@H](O)[C@@H](O)[C@@H](O[C@H]1[C@H](O)[C@H]2O)O[C@@H]8CO)O[C@@H]7CO)O[C@@H]6CO)O[C@@H]5CO)O[C@@H]4CO)O[C@@H]3CO [BETADEX]
Not Active: IC50 [1] | Ki [1] | IC50 (Cytochrome P450 2C9) | Ki (Cytochrome P450 2C9) | IC50 (Carbonic anhydrase 2) | IC50 [2] | IC50 (Cannabinoid receptor 1) | IC50 (Cathepsin G) | IC50 (Cytochrome P450 1A2) | Ki (Cytochrome P450 1A2) | IC50 [3] | Ki [3]

CARBOXYMETHYLCELLULOSE
Not Active: IC50 [1] | Ki [1] | IC50 (Cytochrome P450 2C9) | Ki (Cytochrome P450 2C9) | IC50 (Carbonic anhydrase 2) | Ki (Carbonic anhydrase 2) | IC50 [2] | Ki [2] | IC50 (Cannabinoid receptor 1) | Ki (Cannabinoid receptor 1) | IC50 (Cathepsin G) | Ki (Cathepsin G) | IC50 (Cytochrome P450 1A2) | Ki (Cytochrome P450 1A2) | IC50 [3] | Ki [3]

NC(=O)CN1CCCC1=O
Not Active: IC50 [1] | Ki [1] | IC50 (Cytochrome P450 2C9) | Ki (Cytochrome P450 2C9) | IC50 (Carbonic anhydrase 2) | IC50 [2] | IC50 (Cannabinoid receptor 1) | IC50 (Cathepsin G) | IC50 (Cytochrome P450 1A2) | Ki (Cytochrome P450 1A2) | IC50 [3] | Ki [3]

CNC[C@H](O)c1ccc(O)c(O)c1 [EPINEPHRINE]
Not Active: IC50 [1] | Ki [1] | IC50 (Cytochrome P450 2C9) | Ki (Cytochrome P450 2C9) | IC50 (Carbonic anhydrase 2) | IC50 [2] | IC50 (Cannabinoid receptor 1) | IC50 (Cathepsin G) | IC50 (Cytochrome P450 1A2) | Ki (Cytochrome P450 1A2) | IC50 [3] | Ki [3]

ClC1=C(Cl)[C@]2(Cl)[C@@H]3[C@@H]4C[C@@H]([C@H]5O[C@@H]45)[C@@H]3[C@@]1(Cl)C2(Cl)Cl [DIELDRIN]
Not Active: IC50 [1] | Ki [1] | IC50 (Cytochrome P450 2C9) | Ki (Cytochrome P450 2C9) | IC50 (Carbonic anhydrase 2) | IC50 [2] | IC50 (Cannabinoid receptor 1) | IC50 (Cathepsin G) | IC50 (Cytochrome P450 1A2) | Ki (Cytochrome P450 1A2) | IC50 [3] | Ki [3]

CC(C)(c1ccc(O)cc1)c1ccc(O)cc1 [BISPHENOL A]
Not Active: IC50 [1] | Ki [1] | IC50 (Cytochrome P450 2C9) | Ki (Cytochrome P450 2C9) | IC50 (Carbonic anhydrase 2) | IC50 [2] | IC50 (Cannabinoid receptor 1) | IC50 (Cathepsin G) | IC50 (Cytochrome P450 1A2) | Ki (Cytochrome P450 1A2) | IC50 [3] | Ki [3]
